# Data reported in patent US20230330107A1, “METHODS TO PREVENT HIGH-GRADE SEROUS OVARIAN CANCER AND BREAST CANCER BY ADMINISTERING ANTIPROGESTINS” (priority 2020, published 2023).
# Where “and” joins values, the source holds several entries; their conditions need not be identical. Equal values may be shown once. Entries after “also recorded” stand apart in the source; their conditions may differ.
# Legend:
# ovariectomized DKO mice = type: in vivo
# Excerpt: (§1) Generation of DKO and cPR-DKO mice. DKO mice (Dicer1^flox/flox Pten flox/flox Amhr2^cre/+) were generated. A mouse line carrying Pgr^flox/flox, a conditional progesterone receptor (PR) gene (cPR), was provided by Drs. John Lydon and Francesco DeMayo. Conditional PR (Pgr^flox/flox)) mice were crossed with DKO mice, generating cPR- DKO mice (Pgr^flox/floxDicer1^flox/flox Pten^flox/flox Amhr2^cre/+). These Dicer1-Pten double-knockout (DKO) mice developed metastatic HGSCs arising from the fallopian tube with 100% penetrance. […] All DKO mice die of widespread peritoneal metastases. Besides mirroring the clinical features of human HGSC, these mouse HGSCs closely resemble human HGSC with histopathological, molecular, and genomic similarities. Mouse use and experiments were approved by the Institutional Animal Care and Use Committee (IACUC) at Indiana University School of Medicine.
# Mouse bilateral ovariectomy. To examine the effect of ovary on HGSC development in the fallopian tube, both ovaries were surgically excised with the fallopian tubes remaining intact in DKO mice. The surgery was performed at 5-6 weeks of age, when there is no sign of tumors in the fallopian tube. These ovary-deficient DKO mice were then monitored for tumor development. Another set of DKO mice without surgery served as controls. Prior to surgery, DKO mice were anesthetized using Avertin (2,2,2,-tribromoethano) (125-250 mg/kg) (Sigma-Aldrich, St. Louis, Missouri, USA). For analgesia, Carprofen (5-10 mg/kg) (TCI America, Portland, OR, USA) was used a one dose pre-operatively and every 12 hours thereafter for 24-48 hours post-operatively.
# (§2) Hormone pellet implantation. To evaluate the effects of steroid hormones on HGSC development, upon ovariectomy at 5-6 weeks of age, DKO mice were implanted subcutaneously with a pellet of 17-β estradiol (E2) (0.72 mg/90 days/mouse), progesterone (P4) (25 mg/90 days/mouse), or combined E2 (0.72 mg) & P4 (25 mg). Also, for shorter periods of P4 exposure, ovariectomized DKO mice were treated with a P4 pellet of 2 mg (1 week) or 6 mg (3 weeks). Another set of ovariectomized DKO mice implanted with a placebo (a pellet without hormone) served as controls. […] For a control group, DKO mice received a placebo pellet for mifepristone. After anesthesia, a pellet was inserted subcutaneously (SQ) after a single skin incision (0.5-1.0 cm) on the back near ovary location. The skin incision was closed with either monofilament suture or wound clips. The pellets were purchased from Innovative Research of America (Sarasota, FL, USA).
# (§3) Statistical analysis. Statistical analyses were performed using a GraphPad Prism software (Version 8, GraphPad Software, Inc.). P values less than 0.05 were considered statistically significant. Log-rank test was used to compare survival distributions between different experimental groups of mice; Student's t-test to compare hormone levels between placebo-treated ovariectomized DKO mice and progesterone (P4)-treated ovariectomized DKO mice at 1 week, 3 weeks, and 3 months; Student's t-test to compare hormone levels between ovariectomized DKO mice (Ovex) and each experimental group of DKO mice; and Fisher's exact test to analyze PR expression in benign and malignant ovarian tumors.
# Progesterone induces HGSC with metastatic potential in ovary-deficient DKO mice. Ovary-deficient DKO mice were treated with steroid hormones. […] Tumor development and mouse survival were then monitored.
# [1] = system: DKO mice (Dicer1-Pten double-knockout, HGSC model); test: Mifepristone pellet in DKO mice with intact ovaries: HGSC development and survival; type: in vivo, mouse; details: for median survival: DKO mice, range in brackets
# Excerpt: as §1, §2, §3
# Progesterone generates its biological effects through the progesterone receptors (PR). Thus, to evaluate further whether progesterone signaling is critical to the development of HGSC with metastatic potential, DKO mice were treated with the PR antagonist mifepristone (RU486), an antiprogestin, that acts by binding to PR and inhibiting the transcription of its target genes. […] As expected, DKO mice treated with a placebo developed primary HGSC coupled with abundant peritoneal HGSC metastases (FIG. 1A-B). […] Histologically, the fallopian tubes from mifepristone-treated mice were composed of cystic and fibrous tissues as well as small segments of carcinoma cells in the stroma, accompanied by limited peritoneal metastasis (FIG. 1E-G).
# [2] = Measurement of serum hormone levels (ELISA) in ovariectomized DKO mice; type: in vivo, mouse; details: P4-treated ovariectomized DKO mice
# Experimental: Measurement of hormone levels. Blood samples were collected in serum separation tubes (BD Microtainer® Tube; 365967; BD Biosciences, San Jose, CA, USA) from DKO mice or ovariectomized DKO mice with or without hormone treatment. Serum was isolated by centrifugating blood at 14,000 rpm for 5 minutes at room temperature. Measurements of serum progesterone (P4), 17-β estradiol (E2), testosterone (T), follicle-stimulating hormone (FSH), and luteinizing hormone (LH) levels were performed using ELISA (enzyme-linked immunoassay: P4, E2, and T) or RIA (radioimmunoassay: FSH and LH) at the Center for Research Ligand Assay and Analysis Core in Reproduction at the University of Virginia.
# [3] = mifepristone 3 mg/m for 3 months
# [4] = mifepristone 16.7 mg/m for 6 months
structure (smiles),measurement,setting,value
"C[C@]12CC[C@@H]3c4ccc(O)cc4CC[C@H]3[C@@H]1CC[C@@H]2O [E2, 17-β estradiol]",ovariectomized DKO mice with tumors or swelling in the uterus,"ovariectomized DKO mice; female, DKO (Dicer1flox/flox Ptenflox/flox Amhr2cre/+), mouse, in vivo, 3 months",90.9%
same,tumor phenotype in ovariectomized DKO mice (in words),ovariectomized DKO mice; s.c. hormone pellet for 3 months,did not produce any tumors in the fallopian tube
"CC#C[C@]1(O)CC[C@H]2[C@@H]3CCC4=CC(=O)CCC4=C3[C@@H](c3ccc(N(C)C)cc3)C[C@@]21C [mifepristone, (8S,11R,13S,14S,17S)-11-[4-(dimethylamino)phenyl]-17-hydroxy-13-methyl-17-prop-1-ynyl-1,2,6,7,8,11,12,14,15,16-decahydrocyclopenta[a]phenanthren-3-one]",median survival,"[1]; mifepristone 3 mg/m for 3 months, s.c. pellet from 5-6 weeks of age",11.2 (5.9-21.3) months of age
same,median survival,"[1]; mifepristone 16.7 mg/m for 6 months, s.c. pellets",13.1 (6.6-24.3) months of age and 13.1 months of age
same,DKO mice not inhibited by mifepristone (HGSC development and peritoneal metastasis),"[1]; high dose, 16.7 mg/m for 6 m, 2/21 mice",9.5%
same,DKO mice that still developed fallopian tube HGSC and widespread peritoneal metastases,"[1]; low-dose group, 3 mg/m, 7/21 mice",33.3%
same,hazard ratio (HR) of survival vs placebo-treated DKO mice,[1]; [3],0.40
same,lived longer than DKO mice with placebo,[1]; [3],~4 months
same,effect on HGSC development and peritoneal metastasis (in words),[1]; mifepristone 3 mg/m for 3 months vs placebo,developed little peritoneal metastasis; also recorded: effectively suppressed HGSC development in the fallopian tube and peritoneal metastasis
same,effect on HGSC development and peritoneal metastasis (in words),[1]; mifepristone 16.7 mg/m for 6 m,effectively suppressed HGSC development and peritoneal metastasis
same,hazard ratio (HR) of survival vs placebo-treated DKO mice,[1]; [4],0.13
same,lived longer than placebo-treated DKO mice,[1]; [4],~6 months
"CC(=O)[C@H]1CC[C@H]2[C@@H]3CCC4=CC(=O)CC[C@]4(C)[C@H]3CC[C@]12C [P4, progesterone]",serum progesterone levels (in words),[2],elevated serum progesterone levels
same,hazard ratio (HR) of survival vs placebo-treated ovariectomized DKO mice,ovariectomized DKO mice; P4 25 mg pellet for 3 months,3.01
same,ovariectomized DKO mice that developed predominantly HGSC in the fallopian tube with widespread peritoneal metastases and ascites,"ovariectomized DKO mice; P4 25 mg pellet for 3 months, 32/32 mice",100%
same,median survival,"ovariectomized DKO mice; ovariectomized DKO mice, s.c. hormone pellet for 3 months (P4 25 mg; E2 0.72 mg), range in brackets",6.5 months of age
